One assay has as its system PBMCs. Put plainly: PBMC culture with candidate peptides for 14 days, IFN-γ and IL-5 in supernatant by ELISA. Type of assay: cell-based, human. Conditions: for IFN-γ/IL-5 ratio, recurrent GBM patients compared to primary GBM patients: P<0.05; for IFN-γ/IL-5 ratio (geometric mean): peptide 10 μg/mL. The source says:
Measurement of antigen-specific T cell responses in the peripheral blood in humans differs depending on whether responses are high affinity interactions with foreign (viral) epitopes or lower affinity interactions involving recognition of self-antigens. […] Given that T cell responses directed against MAGE and IL-13Rα2 antigens also involve T cells with low affinity to these self-antigens, antigen-specific responses were quantified based on cytokine secretion, as recently described in a phase I study of patients with MS (Viglietta V, et al: Neurology 2008, 71(12):917-924). Cytokine production was quantified by ELISA, defining a positive T cell response for each patient as the amounts of IFN-γ or IL-5 that were >50 pg/mL and two standard deviations above the mean cytokine levels secreted after stimulation of cells from that patient with negative control MBP peptide.
Twenty-five mL of blood from patients or healthy subjects was obtained under an IRB-approved protocol. All samples of blood from patients were taken at the time of surgery. […] All tumor-bearing patients received similar doses of steroids and anti-epileptic medications at the time of tumor debulking surgery prior to obtaining peripheral blood for these studies. T cell responses in patients with meningiomas controlled for influences of steroids on antigen responsiveness and cytokine balance. Tumor tissue was independently confirmed in all cases by formal pathological analysis. PBMCs were purified from heparinized blood by density gradient centrifugation using Ficoll-Hypaque (GE Healthcare Biosciences), and cells were then washed with PBS and viable cells quantified by trypan-blue staining.
Freshly isolated PBMCs were plated at 2×10^5 cells/well in 200 μl of serum-free X-VIVO15 (X15) media (Lonza) in 96-well round-bottom cell culture plates. Candidate peptides, in addition to a negative control peptide derived from MBP were added at a concentration of 10 μg/mL and anti-CD3 mAb was added at a concentration of 1 μg/mL. Six T cell cultures were established for each condition in each subject, and 100 IU/ml of IL-2 was added on the following day. Plates were incubated at 37° C. and 5% CO2 for 14 days, with media changed as needed, and the supernatant was harvested to evaluate T cell responses (cytokines) induced by each condition using ELISA. In a limited number (n=3) of patients, cytokine production was assessed after both 7 and 14 days. […] An IFN-γ ELISPOT assay was performed as previously described (Lv H, Havari E, et al: J Clin Invest, 121(4):1561-1573).
To detect T helper cell responses directed against the candidate peptides, IFN-γ and IL-5 were measured by ELISA using commercially available kits supplied by BD bioscience. IFN-γ was used as a prototypic Th1 cytokine and IL-5 was chosen as a prototypic cytokine released by Th2 cells because unlike IL-4 there would be no potential consumption by antigen-specific T cells in the culture conditions (Kourilsky P, Truffa-Bachi P: Trends Immunol 2001, 22(9):502-509).
For orientation: An ELISA detects its analyte on a solid surface through an enzyme-linked reagent.

In the next assay the test system is DRB1*04 and *15 alleles. Conditions: literature, Mycko et al. 2004; cited from earlier work.

This is an account of results in patent US20150290306A1, “COMPOSITIONS AND METHODS FOR DIAGNOSIS AND TREATMENT OF MALIGNANT GLIOMAS” (priority 2012, published 2015).

In the case of “ENPVVHFFKNIVTPR [MBP85-99, reference compound]”, in the assay with PBMCs (GBM patients), the “mean cut-off for a positive cytokine response based on cytokine induced by control MBP peptide, IFN-γ” value was found to be 123 pg/mL and the “mean cut-off for a positive cytokine response based on cytokine induced by control MBP peptide, IL-5” value was 312 pg/mL. In addition, the “mean cut-off for a positive cytokine response based on cytokine induced by control MBP peptide, IFN-γ” value with PBMCs (healthy subjects) was determined as 895 pg/mL. Besides, the “HLA class II alleles shown to bind (experimental data)” value with DRB1*04 and *15 alleles is “bind to both the DRB1*04 and *15 alleles”.

For the sequence ILILVIFVTGLLLRK [IL-13Ra2351-365], the “positive wells among 6 primary T cell responses (IFN-γ or IL-5 ELISA)” value with PBMCs (Healthy Subject 1) is “+ (+/++ cell=1-2 positive wells)”; with PBMCs (Healthy Subject 4) it was “+++++ (+++++/++++++ cell=5-6 positive wells)”; in the assay with PBMCs (Healthy Subject 5), “++ (+/++ cell=1-2 positive wells)”; in the assay on PBMCs (Healthy Subject 6), “++ (+/++ cell=1-2 positive wells)”; in the assay on PBMCs (Meningioma 3), “+ (+/++ cell=1-2 positive wells)”; with PBMCs (Meningioma 5) it was “++ (+/++ cell=1-2 positive wells)”. Also, the “positive wells among 6 primary T cell responses (IFN-γ or IL-5 ELISA)” value with PBMCs (Meningioma 6) is reported as “++++++ (+++++/++++++ cell=5-6 positive wells)”; with PBMCs (Primary GBM 1) it was “+++ (+++/++++ cell=3-4 positive wells)”; with PBMCs (Primary GBM 2) it was “++ (+/++ cell=1-2 positive wells)”; in the assay with PBMCs (Primary GBM 3), “++ (+/++ cell=1-2 positive wells)”; in the assay with PBMCs (Primary GBM 4), “+++ (+++/++++ cell=3-4 positive wells)”; with PBMCs (Primary GBM 5), “+ (+/++ cell=1-2 positive wells)”. In addition, the “positive wells among 6 primary T cell responses (IFN-γ or IL-5 ELISA)” value in the assay on PBMCs (Primary GBM 7) was “+++ (+++/++++ cell=3-4 positive wells)”; in the assay with PBMCs (Primary GBM 8) it was “+++++ (+++++/++++++ cell=5-6 positive wells)”; with PBMCs (Recurrent GBM 1) it was “++ (+/++ cell=1-2 positive wells)”; with PBMCs (Recurrent GBM 3), “+ (+/++ cell=1-2 positive wells)”; with PBMCs (Recurrent GBM 5), “++ (+/++ cell=1-2 positive wells)”. The “IFN-γ/IL-5 ratio, recurrent GBM patients compared to primary GBM patients” value in the assay on PBMCs is listed as “significantly lower”. Further, the “IFN-γ/IL-5 ratio (geometric mean)” value turned out to be 2.0 in the assay with PBMCs (healthy subjects), 0.3 in the assay with PBMCs (patients with primary GBMs) and 0.05 in the assay on PBMCs (patients with recurrent GBMs).

In the case of WQYFFPVIFSKASSSLQL [MAGE-A3143-160], the “positive wells among 6 primary T cell responses (IFN-γ or IL-5 ELISA)” value with PBMCs (Healthy Subject 1) is on record as “+++ (+++/++++ cell=3-4 positive wells)”; with PBMCs (Healthy Subject 2), “+++ (+++/++++ cell=3-4 positive wells)”; in the assay on PBMCs (Healthy Subject 3), “+ (+/++ cell=1-2 positive wells)”; with PBMCs (Healthy Subject 4), “+++++ (+++++/++++++ cell=5-6 positive wells)”; with PBMCs (Healthy Subject 5), “++ (+/++ cell=1-2 positive wells)”; in the assay with PBMCs (Healthy Subject 6), “+ (+/++ cell=1-2 positive wells)”. The “positive wells among 6 primary T cell responses (IFN-γ or IL-5 ELISA)” value was “+ (+/++ cell=1-2 positive wells)” with PBMCs (Meningioma 4); “+ (+/++ cell=1-2 positive wells)” in the assay with PBMCs (Meningioma 6); “+ (+/++ cell=1-2 positive wells)” in the assay on PBMCs (Meningioma 7); “++++ (+++/++++ cell=3-4 positive wells)” in the assay on PBMCs (Primary GBM 1); “+++ (+++/++++ cell=3-4 positive wells)” in the assay on PBMCs (Primary GBM 2); “+ (+/++ cell=1-2 positive wells)” in the assay on PBMCs (Primary GBM 3). Further, the “positive wells among 6 primary T cell responses (IFN-γ or IL-5 ELISA)” value was “+ (+/++ cell=1-2 positive wells)” with PBMCs (Primary GBM 4); “+ (+/++ cell=1-2 positive wells)” in the assay on PBMCs (Primary GBM 5); “+ (+/++ cell=1-2 positive wells)” in the assay on PBMCs (Primary GBM 6); “++ (+/++ cell=1-2 positive wells)” in the assay on PBMCs (Primary GBM 7); “+++++ (+++++/++++++ cell=5-6 positive wells)” in the assay with PBMCs (Primary GBM 8); “+ (+/++ cell=1-2 positive wells)” with PBMCs (Recurrent GBM 1). Moreover, the “positive wells among 6 primary T cell responses (IFN-γ or IL-5 ELISA)” value with PBMCs (Recurrent GBM 3) and with PBMCs (Recurrent GBM 4) was “+ (+/++ cell=1-2 positive wells)” each time. Further, the “IFN-γ/IL-5 ratio, recurrent GBM patients compared to primary GBM patients” value with PBMCs is “significantly lower”. The “IFN-γ/IL-5 ratio (geometric mean)” value in the assay with PBMCs (healthy subjects) is 4.3; in the assay with PBMCs (patients with primary GBMs), 0.3; in the assay with PBMCs (patients with recurrent GBMs), 0.4.
